# Reference: patent publication US20170254803A1, “METHOD FOR THE DETECTION OF ANTIGEN PRESENTATION” (Deutsches Krebsforschungszentrum Stiftung des öffentlichen …, priority 2014, published 2017)
# Ends that are not written are not given here.
# Experiments:
# [1] = test system: anti-IDH1R132H antibody (H09); assay: IDH1R132H and IDH1 wildtype peptide coated ELISA; type: binding, mouse; settings: 10 μg peptide per well; H09 1:1000; OD at 450 nm (FIG. 1C)
# Protocol: ELISA plates (Costar) were coated with IDH1R132H and IDH1wt p118-132, p120-134, p122-136, p124-138, p126-140, p128-142, p130-144, p132-146, p123-142 (10 μg per well in PBS), washed with PBS 0.05% Tween 20, and blocked with 3% FBS in PBS 0.05% Tween 20. As negative controls, MOG p35-55 was used at equal concentrations and peptide diluent PBS 10% DMSO was used at equal volume. As primary antibody monoclonal mouse anti-IDH1R132H (1:1000, H09, Dianova) was used. HRP-conjugated secondary antibody was sheep anti-mouse IgG (1:5000, Amersham). HLA-DRB1*01:01 MHC class II tetramer bound to IDH1R132H p123-142 and HLA-DRB1*01:01 MHC class II tetramer control tetramer bound to CLIP were kindly provided by NIH tetramer core facility and used 1:200 during pre-incubation with H09 for competitive ELISA. Substrate was TMB (ebioscience) and reaction was stopped with 1M H2SO4. OD at 450 nm was measured with an ELISA reader (Thermo Fisher).
# [2] = target: HLA-DR in patients' glioma tissue; assay: cell-based or functional assay
binding of anti-IDH1R132H antibody to coated peptide [1],"positivity in the IDH1R132H-MHC class II PLA system (glioma tissue, positivity set to 20 PLA signals per high power field) (of 9 IDH1R132H+ gliomas) [2]",Substance
binds,,KPIIIGHHAYGDQYR [KPIIIGHHAYGDQYR]
binds,,SGWVKPIIIGHHAYG [SGWVKPIIIGHHAYG]
binds,,WVKPIIIGHHAYGDQ [WVKPIIIGHHAYGDQ]
,5,"IDH1R132H (endogenous, in human glioma tissue) (from UniProt O75874 2-414)"
binds,,GWVKPIIIGHHAYGDQYRAT (listed as Homo sapiens) [p123-p142]
